Measurements: paper PMC8688955 (Frontiers in Pharmacology, 2021)

Key:
[1] = test system: CP-AMPARs; assay: Whole-cell patch-clamp of kainate-induced currents in isolated striatal giant interneurons; type: cell-based, Wistar rat; conditions: for % block: representative recording, Figure 1B; for % inhibition: 200 µM phenytoin, n = 5
Experimental: All experimental procedures were approved by the Animal Care and Use Committee of the I.M. Sechenov Institute of Evolutionary Physiology and Biochemistry of the Russian Academy of Sciences. Wistar rats (13–19 days old) were anesthetized with sevoflurane and then decapitated. Maximum effort was made to minimize the number of animals used. Brains were removed quickly and cooled to 2–4°C in an ice bath. […] Single neurons were freed from slices by vibrodissociation ([Vorobjev, 1991]). The antagonism of CP-AMPARs was studied on striatal giant interneurons ([Bernard et al., 1997]; [Gotz et al., 1997]), which were identified by their shape and size. […] The antagonism of CI-AMPARs was studied on pyramidal neurons from the CA1 area of the hippocampus.
Series resistance of about 20 MΩ was compensated by 70–80% and monitored during experiments. Currents were recorded using an EPC-8 amplifier (HEKA Electronics, Lambrecht, Germany), filtered at 5 kHz, sampled, and stored on a personal computer. Drugs were applied using the RSC-200 perfusion system (BioLogic Science Instruments, Claix, France) under computer control. The solution exchange time in the whole-cell mode was 50–60 ms. The extracellular solution contained (in mM) NaCl 143, KCl 5, MgCl2 2.0, CaCl2 2.5, D-glucose 18, and HEPES 10 (pH was adjusted to 7.3 with HCl). The pipette solution contained (in mM) CsF 100, CsCl 40, NaCl 5, CaCl2 0.5, EGTA 5, and HEPES 10 (pH was adjusted to 7.2 with CsOH). Experiments were performed at room temperature (22–24°C). […] Lamotrigine, topiramate, levetiracetam, felbamate, carbamazepine, tiagabin, vigabatrin, zonisamide, and gabapentin were purchased from Tocris Bioscience (Bristol, United Kingdom). Perampanel was from MedChemExpress (Stockholm, Sweden). Kinetics of transient processes of more than 20-ms duration was approximated by exponential functions. Experiments were performed at −80 mV holding voltage. All experimental data are presented as mean ± SD estimated from at least four experiments. Significance of the effects was tested with paired t test. Differences were considered significant at p < 0.05. 3D structures of compounds were calculated by the ZMM software (zmmsoft.ca).

[2] = target: non-NMDA glutamate receptors; parameters: method as in Kawano et al., 1994; conditions: expressed in Xenopus oocytes; ref Kawano et al., 1994; cited from earlier work
[3] = target: voltage-gated sodium channels; parameters: method as in Kuo and Bean, 1994; Lenkowski et al., 2007; conditions: ref Kuo and Bean, 1994; Lenkowski et al., 2007; read-out: Affinity to inactivated states of sodium channels; cited from earlier work

O=C1NC(=O)C(c2ccccc2)(c2ccccc2)N1 [Phenytoin]
% block ([1]; 30 μM phenytoin): 19% | % block ([1]; 100 μM phenytoin): 38% | % inhibition ([1]; 50 µM kainate): 59 ± 5% | % inhibition ([1]; 500 µM kainate): 48 ± 2% | % block, coapplication with agonist ([1]; 300 µM phenytoin, n = 8): 60 ± 6% | % block ([1]; 300 μM phenytoin): 57% | inhibition of kainate-induced currents ([1]; 500 µM phenytoin, highest concentration tested): 58 ± 5% | Hill coefficient ([1]; inhibition of CP-AMPARs, Hill equation): 0.7 ± 0.2 | IC50 ([1]; kainate-induced currents, Hill equation, −80 mV, read-out: IC50 CP-AMPARs): 250 ± 60 µM | IC50 [2]: ≥ 100 µM | Kd [3]: 7 to 21 µM
